Data reported in US12714709B2, “Pharmaceutical compositions comprising 2-[(4S)-8-fluoro-2-[4-(3-methoxyphenyl)piperazin-1-yl]-3-[2-methoxy-5-(trifluoromethyl)phenyl]-4H-quinazolin-4-yl]acetate and sodium ions” (priority 2020, dated 2026).
Where a name gives a salt, the structure may show the parent alone. Read-outs that look alike come from different tables or passages of the source.

Tests used:
[1] = pH of letermovir forms and of letermovir free base with NaOH equivalents in water; type: physicochemical; settings: for Initial pH / pH after 1 week: no NaOH added
Method: The pH value of the samples was measured with a calibrated pH meter EUTEGH CAKTON PH/Ion 510 Serial n° 172361 with a Polilyte lab electrode. The sample is stirred and the electrode is introduced. A measurement is performed until the pH value is stable. Between measurements the electrode is thoroughly rinsed with water. The pH measurements were performed with an analysis volume of ~1-2 mL and a defined temperature of 22° C.±3° C. A 3-point calibration of the pH meter was performed on a daily basis, by using buffers with pH 7.00, pH 4.01 and pH 10.01 (Hamilton Duracal buffer).
(§1) A first set of letermovir samples was prepared by dissolving letermovir free base, letermovir sodium salt amorphous, letermovir sodium salt trihydrate or letermovir sodium salt monohydrate in water to prepare the solutions with the concentration of 20 mg/mL and 100 mg/mL with respect to letermovir free base in order to determine the differences in the pH immediately after dissolution and after 1 week and to check precipitation effects and solubility.
A second set of samples was prepared by adding different equivalents of sodium hydroxide (0.84, 0.86, 0.88 and 0.9 eq.) to letermovir free base solutions. Blank solutions with the same amounts of water and sodium hydroxide equivalents and without letermovir were also prepared for comparative reasons.
(§2) Procedure: The corresponding amount of water was added to each sample with further addition of the respective equivalents of 1 M aqueous NaOH to the samples of second set (Table 4, Table 5 and Table 6). No addition of NaOH was applied to the first set of samples.
(§3) The suspensions were stirred at room temperature and the pH was determined immediately after the preparation and after 1 week. The solubility and precipitation effects were also checked (Table 7, Table 8 and Table 9). […]

[2] = Solubility/precipitation in water, visual inspection; type: physicochemical; settings: for precipitation effects / dissolution over time, visual inspection: in water without sodium hydroxide, 20 and 100 mg/mL, over 1 week
Method: as §1, with “solubility. […]” for “solubility.”
as §2, §3

[3] = 20 mg/ml with respect to free base in water
[4] = 100 mg/ml with respect to free base in water
[5] = 20 mg/ml with respect to free base in water, Monohydrate
[6] = 100 mg/ml with respect to free base in water, Monohydrate
[7] = 20 mg/ml with respect to free base in water, Trihydrate
[8] = 100 mg/ml with respect to free base in water, Trihydrate

Structure (SMILES): COc1cccc(N2CCN(C3=Nc4c(F)cccc4[C@H](CC(=O)O)N3c3cc(C(F)(F)F)ccc3OC)CC2)c1 [Free Base, 2-[(4S)-8-fluoro-2-[4-(3-methoxyphenyl)-piperazin-1-yl]-3-[2-methoxy-5-(trifluoromethyl)phenyl]-4H-quinazolin-4-yl]acetic acid]
- Initial pH [1, 3]: 6.1
- pH after 1 week [1, 3]: 6.1
- Initial pH [1, 4]: 6.3
- pH after 1 week [1, 4]: 6.2
- pH values of the solutions/suspension in water ([1]; in water without sodium hydroxide, 20 and 100 mg/mL, initial and after 1 week, listed as letermovir free base): around 6
- Solubility/Precipitation ([2]; 20 mg/ml with respect to free base in water, no NaOH added): Insoluble
- Solubility/Precipitation ([2]; 100 mg/ml with respect to free base in water, no NaOH added): Insoluble
- precipitation effects / dissolution over time, visual inspection ([2]; listed as letermovir free base): did not dissolve

Structure (SMILES): COc1cccc(N2CCN(C3=Nc4c(F)cccc4[C@H](CC(=O)[O-])N3c3cc(C(F)(F)F)ccc3OC)CC2)c1.[Na+] [Sodium Salt Amorphous]
- Initial pH [1, 3]: 9.2
- pH after 1 week [1, 3]: 9.0
- Initial pH [1, 4]: 9.3
- pH after 1 week [1, 4]: 9.1
- Solubility/Precipitation [2]: Clear solution
- precipitation effects / dissolution over time, visual inspection [2]: completely clear without precipitation effects

Structure (SMILES): COc1cccc(N2CCN(C3=Nc4c(F)cccc4[C@H](CC(=O)O)N3c3cc(C(F)(F)F)ccc3OC)CC2)c1 [Sodium Salt Monohydrate]
- Initial pH [1, 5]: 9.2
- pH after 1 week [1, 5]: 8.9
- Initial pH [1, 6]: 9.2
- pH after 1 week [1, 6]: 9.0
- Solubility/Precipitation ([2]; 20 mg/ml with respect to free base in water, no NaOH added, Monohydrate): Clear solution
- Solubility/Precipitation ([2]; 100 mg/ml with respect to free base in water, no NaOH added, Monohydrate): Clear solution
- precipitation effects / dissolution over time, visual inspection ([2]; listed as letermovir sodium salt monohydrate, Monohydrate): completely clear without precipitation effects

Structure (SMILES): COc1cccc(N2CCN(C3=Nc4c(F)cccc4[C@H](CC(=O)O)N3c3cc(C(F)(F)F)ccc3OC)CC2)c1 [Sodium Salt Trihydrate]
- Initial pH [1, 7]: 9.5
- pH after 1 week [1, 7]: 9.2
- Initial pH [1, 8]: 9.5
- pH after 1 week [1, 8]: 9.2
- Solubility/Precipitation ([2]; 20 mg/ml with respect to free base in water, no NaOH added, Trihydrate): Clear solution
- Solubility/Precipitation ([2]; 100 mg/ml with respect to free base in water, no NaOH added, Trihydrate): Clear solution
- precipitation effects / dissolution over time, visual inspection ([2]; listed as letermovir sodium dalt trihydrate, Trihydrate): completely clear without precipitation effects
